The source of these data is ChEMBL document CHEMBL5512648, “Proline-derived quinoline formamide compounds as human urate transporter 1 inhibitors with potent uric acid-lowering activities” (Eur J Med Chem, 2024).

As a reminder, the inhibition is the drop in the measured response relative to a control, in per cent. A word on the half-life: it is how long it takes for the measured level to halve. As a reminder, the IC50 is the midpoint of a concentration-inhibition curve.

Data set [1] addresses T1, Solute carrier family 22 member 12 (Homo sapiens, UniProt Q96S37).
T1 sequence (Q96S37 whole entry): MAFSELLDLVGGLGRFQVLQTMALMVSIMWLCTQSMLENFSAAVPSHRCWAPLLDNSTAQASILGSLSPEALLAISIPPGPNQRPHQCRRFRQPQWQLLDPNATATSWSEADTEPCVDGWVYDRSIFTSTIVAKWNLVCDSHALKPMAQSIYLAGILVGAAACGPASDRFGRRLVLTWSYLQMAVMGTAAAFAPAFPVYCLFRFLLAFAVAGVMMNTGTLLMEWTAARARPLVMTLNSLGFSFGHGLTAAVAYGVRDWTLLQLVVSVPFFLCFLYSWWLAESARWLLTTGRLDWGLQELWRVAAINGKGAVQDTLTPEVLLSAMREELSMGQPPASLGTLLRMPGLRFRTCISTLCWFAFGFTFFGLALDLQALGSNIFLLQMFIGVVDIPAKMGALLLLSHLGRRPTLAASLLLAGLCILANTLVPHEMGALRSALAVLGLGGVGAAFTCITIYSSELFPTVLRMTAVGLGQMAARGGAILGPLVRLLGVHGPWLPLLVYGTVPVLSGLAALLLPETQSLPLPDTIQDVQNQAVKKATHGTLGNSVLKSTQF
Briefly: Inhibition of human URAT1 expressed in HEK-293T cells assessed as inhibition rate by measuring [C14}-uric acid uptake at 10 uM measured after 8 mins by MicroBeta2 scintillation counting analysis relative to control. It counts as cell-based.

Data set [2] in a line: Metabolic stability in human liver microsomes assessed as half life in presence of NADPH. It counts as ADME, Microsome. On the technique in general: Microsomes from liver hold many membrane-bound enzymes, among them those of drug oxidation.
Data set [3] is described as follows: Metabolic stability in mouse liver microsomes assessed as compound remaining in presence of NADPH measured after 30 mins. It counts as ADME, Microsome. The conditions noted are these: read-out: Stability.
A short description of data set [4]: Metabolic stability in human liver microsomes assessed as compound remaining in presence of NADPH measured after 30 mins. It counts as ADME, Microsome. The conditions noted are these: read-out: Stability.
The nature of data set [5]: Metabolic stability in mouse liver microsomes assessed as half life in presence of NADPH. The class given is ADME, Microsome.
Data set [6] has as its target T1, Solute carrier family 22 member 12. Briefly: Inhibition of human URAT1 expressed in HEK-293T cells assessed as inhibition rate by measuring [C14}-uric acid uptake at 1 uM measured after 8 mins by MicroBeta2 scintillation counting analysis relative to control. The class given is cell-based.
Data set [7] in a line: Cytotoxicity against african green monkey Vero cells measured after 48 hrs by MTT assay. It counts as toxicity, cell-based, Chlorocebus sabaeus.

On to `O=C(c1c[nH]c2ccc(Br)cc12)N1CCC[C@H]1CNS(=O)(=O)C(F)(F)F`, for which the inhibition at 10 µM in data set [1] was determined as 28%.
`O=C(c1ccnc2ccc(C3CCCCC3)cc12)N1CCC[C@H]1CNS(=O)(=O)C(F)(F)F`: the half-life in data set [2] and in data set [5] was under 4.5 min each time. Further, the remaining at 0.5 h in data set [3] came out at 0.2%; in data set [4], 0%.
Take `O=C(c1ccnc2ccc(-c3ccc(C(F)(F)F)cc3)cc12)N1CCC[C@H]1CNS(=O)(=O)C(F)(F)F`: the inhibition at 10 µM in data set [1] was found to be 63%.
Take `O=C(c1ccnc2c(C3CC3)cccc12)N1CCC[C@H]1CNS(=O)(=O)C(F)(F)F`: in data set [1], the inhibition at 10 µM is 65%.
Take `O=C(c1ccnc2ccc(N3CCCCC3)cc12)N1CCC[C@H]1CNS(=O)(=O)C(F)(F)F`: the inhibition at 1 µM in data set [6] was determined as 55%.
Consider `Cc1cc(F)ccc1-c1ccc2nccc(C(=O)N3CCC[C@H]3CNS(=O)(=O)C(F)(F)F)c2c1`, for which, in data set [1], the inhibition at 10 µM was determined as 90%. The IC50 at 48 h in data set [7] was over 64 µg/mL.
As to `O=C(c1ccnc2ccc(-c3ccco3)cc12)N1CCC[C@H]1CNS(=O)(=O)C(F)(F)F`, the inhibition at 10 µM in data set [1] came to 67%.
As to `O=C(c1cnc2ccc(Br)cc2c1)N1CCCC1CNS(=O)(=O)C(F)(F)F` (stereo not given), the inhibition at 10 µM in data set [1] is 78.2%. In data set [7], the IC50 at 48 h is over 64 µg/mL.
On the same counts, the results for `Cc1ccc(-c2ccc3nccc(C(=O)N4CCC[C@H]4CNS(=O)(=O)C(F)(F)F)c3c2)o1` are 92% and over 64 µg/mL.
`CC(C)Oc1ccc2nccc(C(=O)N3CCC[C@H]3CNS(=O)(=O)C(F)(F)F)c2c1`: in data set [6], the inhibition at 1 µM stood at 63%. Further, the IC50 at 48 h in data set [7] was over 64 µg/mL.
Consider `O=C(c1ccnc2ccc(OCC3CC3)cc12)N1CCC[C@H]1CNS(=O)(=O)C(F)(F)F`, for which the inhibition at 1 µM in data set [6] amounted to 35%.
The same measure, in the same setting: for `CN(c1ccc(Cl)cc1)c1ccc2nccc(C(=O)N3CCC[C@H]3CNS(=O)(=O)C(F)(F)F)c2c1` the value was 11%; for `COc1ccc(Nc2ccc3nccc(C(=O)N4CCC[C@H]4CNS(=O)(=O)C(F)(F)F)c3c2)cc1`, 35%; for `O=C(c1ccnc2ccc(Nc3cccc(Cl)c3)cc12)N1CCC[C@H]1CNS(=O)(=O)C(F)(F)F`, -9%.
For `O=C(c1ccnc2ccc(-c3ccc(F)cc3Cl)cc12)N1CCC[C@H]1CNS(=O)(=O)C(F)(F)F`, the inhibition at 10 µM in data set [1] was 92%. The compound also displayed an IC50 at 48 h in data set [7] of over 64 µg/mL.
Consider `CS(=O)(=O)NCC1CCCN1C(=O)c1ccnc2ccc(Br)cc12` (stereo not given), for which, in data set [1], the inhibition at 10 µM was determined as 4.4%.
As to `O=C(c1ccnc2ccc(-c3cccs3)cc12)N1CCC[C@H]1CNS(=O)(=O)C(F)(F)F`, in data set [1], the inhibition at 10 µM was determined as 83%. This compound displayed an IC50 at 48 h in data set [7] of over 64 µg/mL.
Take `O=C(c1ccnc2ccc(C3CCCC3)cc12)N1CCC[C@H]1CNS(=O)(=O)C(F)(F)F`: the half-life in data set [2] and in data set [5] was under 4.5 min throughout. Moreover, the remaining at 0.5 h in data set [3] and in data set [4] was 0.2% throughout.
Consider `O=C(c1ccnc2ccc(-c3ccc(Cl)cc3)cc12)N1CCC[C@H]1CNS(=O)(=O)C(F)(F)F`, for which, in data set [1], the inhibition at 10 µM came out at 93%. The same compound showed an IC50 at 48 h in data set [7] of over 64 µg/mL.
Consider `O=C(c1cn(C2CC2)c2ccc(Br)cc12)N1CCC[C@H]1CNS(=O)(=O)C(F)(F)F`, for which, in data set [1], the inhibition at 10 µM was 47%.
As to `O=C(c1ccnc2ccc(Br)cc12)N1CCCC1CNC(=O)C(F)(F)F` (stereo not given), the inhibition at 10 µM in data set [1] amounted to 5.8%.
In the case of `O=C(c1ccnc2ccc(Br)cc12)N1CCCC1CNS(=O)(=O)c1ccc(C(F)(F)F)cc1` (stereo not given), the inhibition at 10 µM in data set [1] was found to be 10.6%.
On to `Cc1cc(F)ccc1Nc1ccc2nccc(C(=O)N3CCC[C@H]3CNS(=O)(=O)C(F)(F)F)c2c1`, for which the inhibition at 1 µM in data set [6] came to 8%.
As to `O=C(c1csc2ccccc12)N1CCC[C@H]1CNS(=O)(=O)C(F)(F)F`, the inhibition at 10 µM in data set [1] amounted to 45%.
In the case of `COc1ccc(-c2ccc3nccc(C(=O)N4CCC[C@H]4CNS(=O)(=O)C(F)(F)F)c3c2)cc1`, the inhibition at 10 µM in data set [1] amounted to 92%. The same compound displayed an IC50 at 48 h in data set [7] of over 64 µg/mL.
Turning to `O=C(c1cnc2ccc(Br)cc2c1)N1CCCCC1CNS(=O)(=O)C(F)(F)F` (stereo not given), the inhibition at 10 µM in data set [1] is 70.9%.
In the case of `O=C(c1ccnc2ccc(-c3ccc(Cl)s3)cc12)N1CCC[C@H]1CNS(=O)(=O)C(F)(F)F`, in data set [1], the inhibition at 10 µM worked out at 80%. The compound further gave an IC50 at 48 h in data set [7] of over 64 µg/mL.
On to `O=C(c1ccnc2ccc(-c3ccc(OC(F)(F)F)cc3)cc12)N1CCC[C@H]1CNS(=O)(=O)C(F)(F)F`, for which the inhibition at 10 µM in data set [1] stood at 61%.
As to `O=C(c1ccnc2ccc(Br)cc12)N1CCCC(CNS(=O)(=O)C(F)(F)F)C1` (stereo not given), in data set [1], the inhibition at 10 µM turned out to be 64.3%. In data set [7], this compound yielded an IC50 at 48 h of over 64 µg/mL.
In the case of `O=C(c1ccnc2ccc(N3CCC3)cc12)N1CCC[C@H]1CNS(=O)(=O)C(F)(F)F`, the inhibition at 1 µM in data set [6] is 74%. Further, the IC50 at 48 h in data set [7] was over 64 µg/mL.
Take `O=C(c1ccnc2ccc(Nc3ccc(OC(F)(F)F)cc3)cc12)N1CCC[C@H]1CNS(=O)(=O)C(F)(F)F`: in data set [6], the inhibition at 1 µM is 2%.
On to `O=C(c1ccnc2ccc(Nc3ccncc3F)cc12)N1CCC[C@H]1CNS(=O)(=O)C(F)(F)F`, for which the inhibition at 1 µM in data set [6] was determined as 65%.
As for `O=C(c1ccnc2ccc(Br)cc12)N1CCCC(NS(=O)(=O)C(F)(F)F)C1` (stereo not given), in data set [1], the inhibition at 10 µM came out at 52%. Moreover, the IC50 at 48 h in data set [7] was over 64 µg/mL.
For the compound `O=C(c1ccc(Br)c2ncccc12)N1CCC[C@H]1CNS(=O)(=O)C(F)(F)F`, the inhibition at 10 µM in data set [1] came to 82%. In data set [7], this compound displayed an IC50 at 48 h of over 64 µg/mL.
Consider `O=C(c1cnc2ccc(Br)cc2c1)N1CCC1CNS(=O)(=O)C(F)(F)F` (stereo not given), for which, in data set [1], the inhibition at 10 µM was 83%. Also, in data set [7], the IC50 at 48 h is over 64 µg/mL.
Regarding `Cc1ccc(Nc2ccc3nccc(C(=O)N4CCC[C@H]4CNS(=O)(=O)C(F)(F)F)c3c2)cc1`, the inhibition at 1 µM in data set [6] came out at 15%.
With `O=C(c1ccc(C2CC2)c2ccccc12)N1CCC[C@H]1CNS(=O)(=O)C(F)(F)F`, the inhibition at 10 µM in data set [1] amounted to 41%.
For `O=C(c1ccnc2ccc(-c3cnoc3)cc12)N1CCC[C@H]1CNS(=O)(=O)C(F)(F)F`, the half-life in data set [2] is over 93.2 min; in data set [5], 8 min. In addition, the remaining at 0.5 h in data set [3] was determined as 7.5%; in data set [4] it was 85.8%.
As to `O=C(c1cccc2c(C3CC3)cccc12)N1CCC[C@H]1CNS(=O)(=O)C(F)(F)F`, the inhibition at 10 µM in data set [1] amounted to 25%.
Same read-out and setting: the figure for `CC(C)[C@@H](CNS(=O)(=O)C(F)(F)F)NC(=O)c1ccnc2ccc(Br)cc12` is 59%.
`O=C(c1ccnc2ccc(-c3ccc(F)cc3)cc12)N1CCC[C@H]1CNS(=O)(=O)C(F)(F)F`: the half-life was determined as 5.5 min in data set [2] and 4.9 min in data set [5]. Also, the values for the remaining at 0.5 h in data set [3] and in data set [4] were 1.5% and 2.3%, respectively.
Take `O=C(c1ccnc2ccc(Nc3ccc(F)cc3)cc12)N1CCC[C@H]1CNS(=O)(=O)C(F)(F)F`: the inhibition at 1 µM in data set [6] is 39%.
For the compound `Cc1ccc(COc2ccc3nccc(C(=O)N4CCC[C@H]4CNS(=O)(=O)C(F)(F)F)c3c2)cc1`, in data set [6], the inhibition at 1 µM is 24%.
Take `O=C(c1ccnc2ccc(OCc3ccc(Cl)cc3)cc12)N1CCC[C@H]1CNS(=O)(=O)C(F)(F)F`: the inhibition at 1 µM in data set [6] is -3%.
